Results from patent US4235893A, “Ester derivatives of 4-hydroxy-4-androstene-3,17-dione and a method for inhibiting estrogen biosynthesis” (priority 1978, dated 1980).

Columns and labels:
estrogen biosynthesis [1] = assay: In vitro inhibition of estrogen biosynthesis; assay type: biochemical
estrogen biosynthesis [2] = assay: In vivo inhibition of estrogen biosynthesis; parameters: species or system rat
estrogen biosynthesis [3] = settings: Endocrinology 92, 866 (1973); Endocrinology 100, 1684 (1977); cited from earlier work
[4] = Release of compound from skin implant in rat studies; assay type: in vivo
[5] = Polarity by thin layer chromatography; assay type: physicochemical; settings: compared with 4-acetate-4-A
mating in rats = assay: In vivo effect on mating in rats (silastic wafer implant); parameters: species or system rat; settings: 8 female rats
Description: Female rats showing at least 2 consecutive 4-day cycles were used. On the day of diestrus I, a silastic wafer, was inserted under the dorsal skin of each rat. The wafer, about 25 mm in diameter and 1 mm thick, was prepared by polymerizing 0.5 g of Corning medical grade Silastic 382 with 75 mg 4-acetate-4-A, using stannous octoate catalyst. Each female was housed with 2 fertile males until mating occurred. Control animals were treated with same except that 4-acetate-4-A was omitted from the wafer.

[6] = system: implantation in mated rats; assay: In vivo effect on implantation in mated rats; parameters: species or system rat; settings: 7 mated rats; 100 mg/kg daily by injection from Day 2 of pregnancy
Description: Injections of 4-acetate-4-A in a suspending vehicle were begun at 0800 hr on Day 2 of pregnancy, and repeated thereafter at […], and at 2400 hr as 2/6 daily dose. The daily does was 100 mg of 4-acetate-4-A per kg of body weight. Control animals were treated the same except that only the suspending vehicle was injected.

[7] = system: Estrogen-dependent mammary tumors; assay: In vivo effect on DMBA-induced estrogen-dependent mammary tumors in rats; parameters: species or system rat; settings: after 4 weeks, wafer with 150 mg plus sc 2.5 mg/100 g twice daily
Description: Estrogen-dependent mammary tumors where induced in rats with DMBA. Prior to treatment the 7 sample group rats had 23 tumors; the 6 control group rats had 17 tumors. During the initial treatment period the number of tumors increased to 28 for the sample group, 24 for the control group.
The sample group was treated with implanted wafers containing 0.5 g silastic and 150 mg 4-acetate-4-A. The sample group was also treated twice daily for 4 weeks with sc injections of 4-acetate-4-A (2.5 mg/100 g animal) in a suspending vehicle. The control was treated the same except that 4-acetate-4-A was omitted from the wafers and the injection.

## CC12CCC3C(CCC4=C(OC(=O)CCC(=O)O)C(=O)CCC43C)C1CCC2=O (stereo not shown) [4-hemisuccinate-4-A]
Estrogen biosynthesis [1]
  ability to inhibit estrogen biosynthesis (in vitro): marked ability to inhibit estrogen biosynthesis
Estrogen biosynthesis [2]; in vivo
  ability to inhibit estrogen biosynthesis (in vivo): marked ability to inhibit estrogen biosynthesis

## CCCCCCC(=O)OC1=C2CCC3C4CCC(=O)C4(C)CCC3C2(C)CCC1=O (stereo not shown) [4-heptanoate-4-A]
Estrogen biosynthesis [1]
  ability to inhibit estrogen biosynthesis (in vitro): This expectation has been borne out

## C[C@]12C=CC(=O)C=C1C=C[C@@H]1[C@@H]2CC[C@]2(C)C(=O)CC[C@@H]12 [1,4,6-androstatriene-3,17-dione]
Estrogen biosynthesis [3]
  inhibition of estrogen biosynthesis (literature): effective inhibitors of estrogen biosynthesis

## C[C@]12CCC(=O)C=C1C(=O)C[C@@H]1[C@@H]2CC[C@]2(C)C(=O)CC[C@@H]12 (stereo in doubt) [4-androstene-3,6,17-trione]
Estrogen biosynthesis [3]
  inhibition of estrogen biosynthesis (literature): effective inhibitors of estrogen biosynthesis

## C[C@]12CCC(=O)C(O)=C1CC[C@@H]1[C@@H]2CC[C@]2(C)C(=O)CC[C@@H]12 [4-OH-4-A, 4-hydroxy-4-androstene-3,17-dione]
[4]
  diffusion / release from skin implant: does not diffuse as well from the implant
[5]
  polarity (thin layer chromatography): less polar than 4-acetate-4-A
Estrogen biosynthesis [3]
  inhibition of estrogen biosynthesis (literature): effective inhibitor of estrogen biosynthesis

## C[C@]12CC[C@H]3[C@@H](CCC4=CC(=O)CC[C@@H]43)[C@@H]1CCC2=O [4-estrene-3,17-dione]
Estrogen biosynthesis [3]
  inhibition of estrogen biosynthesis (literature): effective inhibitors of estrogen biosynthesis

## CC(=O)OC1=C2CCC3C4CCC(=O)C4(C)CCC3C2(C)CCC1=O (stereo not shown) [4-acetate-4-A]
Mating in rats; 1st day, silastic wafer with 75 mg 4-acetate-4-A under dorsal skin
  Number of animals mating on a given day: 1st: 0
Mating in rats; 6th day, silastic wafer with 75 mg
  Number of animals mating on a given day: 6th: 2
Mating in rats; 7th day, silastic wafer with 75 mg
  Number of animals mating on a given day: 7th: 2
Mating in rats; 15th day, silastic wafer with 75 mg
  Number of animals mating on a given day: 15th day: 3
Mating in rats; 2d day, silastic wafer with 75 mg
  Number of animals mating on a given day: 2d: 1
[6]
  Animals without implants: 4
  Average number of normal-sized implants/animal: 1.7
  Average number of small (<2.4 mm) implants/animal: 1.4
  Number of animals affected by treatment: 7
[7]
  tumors completely regressed: 64%
[7]; in addition to those completely regressed
  tumors regressed to less than 1/2 their pretreatment size: 32%
Estrogen biosynthesis [2]; in vivo rat studies
  ovarian estrogen secretion: lower ovarian estrogen secretion
[4]
  diffusion / release from skin implant: continuous, uniform release
